# US20190284136A1, “INDOLINE DERIVATIVES” (ViiV HEALTHCARE UK LIMITED, priority 2016, published 2019)
# Test system: HIV
# Test: Table 1 IC50 of the examples (assay method not given; patent concerns inhibiting HIV replication)
# Assay type: cell-based
# Conditions: Human immunodeficiency virus 1
row,SMILES,IC50
1,"COc1c(F)ccc(F)c1C(=O)N1CCc2c1cc(C)c([C@H](OC(C)(C)C)C(=O)O)c2-c1ccc(C)cc1 [Example 15, (S)-2-(tert-Butoxy)-2-(1-(3,6-difluoro-2-methoxybenzoyl)-6-methyl-4-(p-tolyl)indolin-5-yl)acetic acid]",117 nM
2,"COc1cccc(C(=O)N2CCc3c2cc(C)c([C@H](OC(C)(C)C)C(=O)O)c3-c2ccc(C)cc2)c1 [Example 16, (S)-2-(tert-Butoxy)-2-(1-(3-methoxybenzoyl)-6-methyl-4-(p-tolyl)indolin-5-yl)acetic acid]",12 nM
3,"COc1ccccc1C(=O)N1CCc2c1cc(C)c([C@H](OC(C)(C)C)C(=O)O)c2-c1ccc(C)cc1 [Example 17, (S)-2-(tert-Butoxy)-2-(1-(2-methoxybenzoyl)-6-methyl-4-(p-tolyl)indolin-5-yl)acetic acid]",11 nM
4,"Cc1ccc(-c2c3c(cc(C)c2[C@H](OC(C)(C)C)C(=O)O)N(C(=O)c2ccccc2F)CC3)cc1 [Example 18, (S)-2-(tert-Butoxy)-2-(1-(2-fluorobenzoyl)-6-methyl-4-(p-tolyl)indolin-5-yl)acetic acid]",11 nM
5,"Cc1ccc(-c2c3c(cc(C)c2[C@H](OC(C)(C)C)C(=O)O)N(C(=O)c2ccc(F)cc2Cl)CC3)cc1 [Example 19, (S)-2-(tert-Butoxy)-2-(1-(2-chloro-4-fluorobenzoyl)-6-methyl-4-(p-tolyl)indolin-5-yl)acetic acid]",5 nM
6,"COc1cccc(C(=O)N2CCc3c2cc(C)c([C@H](OC(C)(C)C)C(=O)O)c3-c2ccc(C)cc2)c1F [Example 20, (S)-2-(tert-Butoxy)-2-(1-(2-fluoro-3-methoxybenzoyl)-6-methyl-4-(p-tolyl)indolin-5-yl)acetic acid]",66 nM
7,"COc1cc(F)ccc1C(=O)N1CCc2c1cc(C)c([C@H](OC(C)(C)C)C(=O)O)c2-c1ccc(C)cc1 [Example 21, (S)-2-(tert-Butoxy)-2-(1-(4-fluoro-2-methoxybenzoyl)-6-methyl-4-(p-tolyl)indolin-5-yl)acetic acid]",9 nM
8,"Cc1ccc(-c2c3c(cc(C)c2[C@H](OC(C)(C)C)C(=O)O)N(C(=O)c2ccc(Cl)cc2)CC3)cc1 [Example 22, (S)-2-(tert-Butoxy)-2-(1-(4-chlorobenzoyl)-6-methyl-4-(p-tolyl)indolin-5-yl)acetic acid]",11 nM
9,"Cc1ccc(-c2c3c(cc(C)c2[C@H](OC(C)(C)C)C(=O)O)N(C(=O)OC(C)(C)C)CC3)cc1 [Example 24, (S)-2-(tert-Butoxy)-2-(1-(tert-butoxycarbonyl)-6-methyl-4-(p-tolyl)indolin-5-yl)acetic acid]",47 nM
10,"Cc1ccc(-c2c3c(cc(C)c2[C@H](OC(C)(C)C)C(=O)O)N(C(=O)CC2CCCCC2)CC3)cc1 [Example 25, (S)-2-(tert-Butoxy)-2-(1-(2-cyclohexylacetyl)-6-methyl-4-(p-tolyl)indolin-5-yl)acetic acid]",43 nM
11,"Cc1ccc(-c2c3c(cc(C)c2[C@H](OC(C)(C)C)C(=O)O)N(C(=O)c2nc(C)sc2C)CC3)cc1 [Example 26, (S)-2-(tert-Butoxy)-2-(1-(2,5-dimethylthiazole-4-carbonyl)-6-methyl-4-(p-tolyl)indolin-5-yl)acetic acid]",123 nM
12,"COc1c(F)cccc1C(=O)N1CCc2c1cc(C)c([C@H](OC(C)(C)C)C(=O)O)c2-c1ccc(C)cc1 [Example 27, (S)-2-(tert-Butoxy)-2-(1-(3-fluoro-2-methoxybenzoyl)-6-methyl-4-(p-tolyl)indolin-5-yl)acetic acid]",7 nM
13,"Cc1ccc(-c2c3c(cc(C)c2[C@H](OC(C)(C)C)C(=O)O)N(S(=O)(=O)C2CCCCC2)CC3)cc1 [Example 28, (S)-2-(tert-Butoxy)-2-(1-(cyclohexylsulfonyl)-6-methyl-4-(p-tolyl)indolin-5-yl)acetic acid]",11400 nM
14,"Cc1ccc(-c2c3c(cc(C)c2[C@H](OC(C)(C)C)C(=O)O)N(C(=O)c2cccc(F)c2)CC3)cc1 [Example 29, (S)-2-(tert-Butoxy)-2-(1-(3-fluorobenzoyl)-6-methyl-4-(p-tolyl)indolin-5-yl)acetic acid]",17 nM
15,"Cc1ccc(-c2c3c(cc(C)c2[C@H](OC(C)(C)C)C(=O)O)N(C(=O)c2cccc(F)c2C)CC3)cc1 [Example 30, (S)-2-(tert-Butoxy)-2-(1-(3-fluoro-2-methylbenzov)-6-methyl-4-(p-tolyl)indolin-5-yl)acetic acid]",8 nM
16,"Cc1ccc(-c2c3c(cc(C)c2[C@H](OC(C)(C)C)C(=O)O)N(C(=O)c2ccc(C)c(F)c2)CC3)cc1 [Example 31, (S)-2-(tert-Butoxy)-2-(1-(3-fluoro-4-methylbenzov)-6-methyl-4-(p-tolyl)indolin-5-yl)acetic acid]",12 nM
17,"Cc1ccc(-c2c3c(cc(C)c2[C@H](OC(C)(C)C)C(=O)O)N(C(=O)c2cc(C)cc(F)c2)CC3)cc1 [Example 32, (S)-2-(tert-Butoxy)-2-(1-(3-fluoro-5-methylbenzov)-6-methyl-4-(p-tolyl)indolin-5-yl)acetic acid]",11 nM

row,SMILES,IC50
1,Cc1ccc(-c2c3c(cc(C)c2[C@H](OC(C)(C)C)C(=O)O)N(C(=O)c2cc(F)ccc2C)CC3)cc1 [Example 33],13 nM
2,"Cc1ccc(-c2c3c(cc(C)c2[C@H](OC(C)(C)C)C(=O)O)N(C(=O)Cc2ccc(F)c(F)c2)CC3)cc1 [Example 34, (S)-2-(tert-Butoxy)-2-(1-(2-(3,4-difluorophenyl)acetyl)-6-methyl-4-(p-tolyl)indolin-5-yl)acetic acid]",69 nM
3,"Cc1ccc(-c2c3c(cc(C)c2[C@H](OC(C)(C)C)C(=O)O)N(S(=O)(=O)c2ccc(F)c(F)c2)CC3)cc1 [Example 35, (S)-2-(tert-Butoxy)-2-(1-((3,4-difluorophenyl)sulfonyl)-6-methyl-4-(p-tolyl)indolin-5-yl)acetic acid]",9800 nM
4,"Cc1ccc(-c2c3c(cc(C)c2[C@H](OC(C)(C)C)C(=O)O)N(S(=O)(=O)N2CCCCC2)CC3)cc1 [Example 36, (S)-2-(tert-Butoxy)-2-(6-methyl-1-(piperidin-1-ylsulfonyl)-4-(p-tolyl)indolin-5-yl)acetic acid]",65 nM
5,"Cc1ccc(-c2c3c(cc(C)c2[C@H](OC(C)(C)C)C(=O)O)N(C(=O)NC2CCCCC2)CC3)cc1 [Example 37, (S)-2-(tert-Butoxy)-2-(1-(cyclohexylcarbamoyl)-6-methyl-4-(p-tolyl)indolin-5-yl)acetic acid]",80 nM
6,"Cc1ccc(-c2c3c(cc(C)c2[C@H](OC(C)(C)C)C(=O)O)N(C(=O)c2ccccn2)CC3)cc1 [Example 38, (S)-2-(tert-Butoxy)-2-(6-methyl-1-picolinoyl-4-(p-tolyl)indolin-5-yl)acetic acid]",18 nM
7,"Cc1ccc(-c2c3c(cc(C)c2[C@H](OC(C)(C)C)C(=O)O)N(C(=O)c2cccnc2)CC3)cc1 [Example 39, (S)-2-(tert-Butoxy)-2-(6-methyl-1-nicotinoyl-4-(p-tolyl)indolin-5-yl)acetic acid]",27 nM
8,"Cc1ccc(-c2c3c(cc(C)c2[C@H](OC(C)(C)C)C(=O)O)N(C(=O)c2ccncc2)CC3)cc1 [Example 40, (S)-2-(tert-Butoxy)-2-(1-isonicotinoyl-6-methyl-4-(p-tolyl)indolin-5-yl)acetic acid]",283 nM
9,"Cc1ccc(-c2c3c(cc(C)c2[C@H](OC(C)(C)C)C(=O)O)N(C(=O)C2CCCCC2)CC3)cc1 [Example 41, (S)-2-(tert-Butoxy)-2-(1-(cyclohexanecarbonyl)-6-methyl-4-(p-tolyl)indolin-5-yl)acetic acid]",17 nM
10,"Cc1ccc(-c2c3c(cc(C)c2[C@H](OC(C)(C)C)C(=O)O)N(C(=O)c2ccc(F)c(F)c2)CC3)cc1 [Example 42, (S)-2-(tert-Butoxy)-2-(1-(3,4-difluorobenzoyl)-6-methyl-4-(p-tolyl)indolin-5-yl)acetic acid]",5 nM
11,"Cc1ccc(-c2c3c(cc(C)c2[C@H](OC(C)(C)C)C(=O)O)N(C(=O)c2cccc(F)c2F)CC3)cc1 [Example 43, (S)-2-(tert-Butoxy)-2-(1-(2,3-difluorobenzoyl)-6-methyl-4-(p-tolyl)indolin-5-yl)acetic acid]",10 nM
12,"Cc1ccc(-c2c3c(cc(C)c2[C@H](OC(C)(C)C)C(=O)O)N(C(=O)c2ccc(F)cc2C)CC3)cc1 [Example 44, (S)-2-(tert-Butoxy)-2-(1-(4-fluoro-2-methylbenzoyl)-6-methyl-4-(p-tolyl)indolin-5-yl)acetic acid]",6 nM
13,"COc1cc(C(=O)N2CCc3c2cc(C)c([C@H](OC(C)(C)C)C(=O)O)c3-c2cc(F)c3c(c2C)CCCO3)ccc1C [Example 71, (S)-2-(tert-Butoxy)-2-((R)-4-(8-fluoro-5-methylchroman-6-yl)-1-(3-methoxy-4-methylbenzoyl)-6-methylindolin-5-yl)acetic acid]",4 nM
14,"Cc1cc2c(c(-c3cc(F)c4c(c3C)CCCO4)c1[C@H](OC(C)(C)C)C(=O)O)CCN2C(=O)C1CCCc2ccccc21 (stereo partly drawn) [Example 105, (2S)-2-(tert-Butoxy)-2-((4R)-4-(8-fluoro-5-methylchroman-6-yl)-6-methyl-1-(1,2,3,4-tetrahydronaphthalene-1-carbonyl)indolin-5-yl)acetic acid]",21 nM
15,"Cc1cc2c(c(-c3cc(F)c4c(c3C)CCCO4)c1[C@H](OC(C)(C)C)C(=O)O)CCN2C(=O)C1CCOC1 (stereo partly drawn) [Example 134, (2S)-2-(tert-Butoxy)-2-((4R)-4-(8-fluoro-5-methylchroman-6-yl)-6-methyl-1-(tetrahydrofuran-3-carbonyl)indolin-5-yl)acetic acid]",453 nM
16,"Cc1cc2c(c(-c3cc(F)c4c(c3C)CCCO4)c1[C@H](OC(C)(C)C)C(=O)O)CCN2C(=O)c1cc(F)cc(C(F)(F)F)c1 [Example 143, (S)-2-(tert-Butoxy)-2-((R)-1-(3-fluoro-5-(trifluoromethyl)benzoyl)-4-(8-fluoro-5-methylchroman-6-yl)-6-methylindolin-5-yl)acetic acid]",14 nM
17,"COc1cncc(C(=O)N2CCc3c2cc(C)c([C@H](OC(C)(C)C)C(=O)O)c3-c2cc(F)c3c(c2C)CCCO3)c1 [Example 151, (2S)-2-(tert-Butoxy)-2-(4-(8-fluoro-5-methylchroman-6-yl)-1-(5-methoxynicotinoyl)-6-methylindolin-5-yl)acetic acid]",17 nM
